Columns and labels:
Format in all cases: cell-based, human
Jurkat cells = experiment: Cell viability (tryphan blue) and cell death of Jurkat cells; details: 1000 nM
Procedure: Panel A, Jurkat cells (a CD^4+ T cell line) were grown in RPMI 1640 and 10% (v/v) fetal bovine serum. Cells (10^6 cells per ml) were treated (+) or not (−) with 1000 nM SYRAPRO-2000. Cell viability was then determined by counting the cells following tryphan blue staining after 1, 2 and 4 hours of incubation. Panel B, Following treatment with SYRAPRO-2000 for 1, 2 and 4 hours as indicated, Jurkat cells (10^6/ml) were washed with RPMI plus 2% fetal bovine serum and then deposited onto glass slides by cytospinning. Phase contrast images were then obtained with white light emission on a Zeiss Axioplan 2 imaging universal microscope (Thornwood, N.Y.). […]
Jurkat cells are grown in RPMI 1680 medium supplemented with 5% (v/v) fetal bovine serum and antibiotics and treated or not with 1 μM of SYRAPRO-2000 for 1 hour, 2 hours and 4 hours. Following treatment with SYRAPRO-2000, cell viability are then determined by counting the cells following tryphan blue staining. […]
Following treatment of cells with SYRAPRO-2000, cells were examined by phase contrast microscopy or by fluorescent microscopy following staining with FITC labeled annexin V (apoptotic cell death) and propidium iodide (oncolytic cell death). Cells were analyzed on a Zeiss Axioplan 2 imaging universal microscope (Thornwood, N.Y.). […] Green (FITC labeled annexin V) and red (propidium iodide) fluorescence images were obtained. […]

[1] = Cell viability (tryphan blue) and cell death of HTB-3 cells; details: human, HTB-3 cells (glioblastoma cell line), 2000 nM, 8 days of incubation, read-out: treated cells non viable (tryphan blue staining)
Procedure: (§1) Panel A, HTB-3 cells (a human glioblastoma cell line) were grown in DMEM and 5% (v/v) fetal bovine serum. Cells (10^6 cells per ml) were treated (+) or not (−) with 2000 nM SYRAPRO-2000. Cell viability was then determined by counting the cells following tryphan blue staining after 4, 8 and 12 days of incubation. Panel B, Following treatment with or without SYRAPRO-2000 for 8 days, HTB-3 cells grown on slides were analyzed by phase contrast microscopy (Row A), by fluorescence microscopy following staining with FITC labeled annexin V (apoptotic cell death) (Row B) or propidium iodide (oncolytic cell death) on a Cells were analyzed on a Zeiss Axioplan 2 imaging universal microscope (Thornwood, N.Y.). Phase contrast images and Green (FITC labeled annexin V) and red (propidium iodide) fluorescence images were obtained. […]
(§2) HTB-3 cells are grown in DMEM supplemented with 5% (v/v) fetal bovine serum and antibiotics and treated or not with 2 μM SYRAPRO-2000 for 8 days. Following treatment with SYRAPRO-2000, cell viability are then determined by counting the cells following tryphan blue staining. […] Following treatment with SYRAPRO-2000, cells grown on slides by were analyzed by phase contrast microscopy and fluorescence microscopy following staining with FITC labeled annexin V (an indicator of apoptotic cell death) or propidium iodide (an indicator of oncolytic or necrotic cell death). […]

HTB-3 cells = experiment: as above; details: 2000 nM, 8 days
Procedure: as §1, §2

[2] = Cell viability (tryphan blue) and cell death of SK-N-SH cells; details: human, SK-N-SH cells (neuroblastoma cell line), 2000 nM, 4 days of incubation, read-out: treated cells non viable (tryphan blue staining)
Procedure: as §1, with “SK—N—SH” for “HTB-3”, “neuroblastoma” for “glioblastoma”, “a” for “a Cells were analyzed”
(§3) SK—N—SH cells are grown in DMEM supplemented with 5% (v/v) fetal bovine serum and antibiotics and treated or not with 2 μM SYRAPRO-2000 for 8 days. Following treatment with SYRAPRO-2000, cell viability are then determined by counting the cells following tryphan blue staining. […] Following treatment with SYRAPRO-2000, cells grown on slides by were analyzed by phase contrast microscopy and fluorescence microscopy following staining with FITC labeled annexin V (an indicator of apoptotic cell death) or propidium iodide (an indicator of oncolytic or necrotic cell death). […]

SK—N—SH cells = experiment: as above; details: 2000 nM, 8 days
Procedure: as §1, with “SK—N—SH” for “HTB-3”, “neuroblastoma” for “glioblastoma”, “a” for “a Cells were analyzed”
as §3

CC[C@H](C)[C@H](NC(=O)[C@H](CCCNC(=N)N)NC(=O)[C@H](CO)NC(=O)[C@H](Cc1c[nH]cn1)NC(=O)[C@H](CCCNC(=N)N)NC(=O)[C@H](CS)NC(=O)CNC(=O)[C@@H](NC(=O)[C@H](CCCNC(=N)N)NC(=O)[C@H](Cc1ccccc1)NC(=O)[C@@H](N)Cc1c[nH]cn1)[C@@H](C)CC)C(=O)NCC(=O)N[C@H](C(=O)N[C@H](C(=O)N[C@@H](CCCNC(=N)N)C(=O)N[C@@H](CCC(N)=O)C(=O)N[C@@H](CCCNC(=N)N)C(=O)N[C@@H](CCCNC(=N)N)C(=O)N[C@@H](C)C(=O)N[C@@H](CCCNC(=N)N)C(=O)N[C@@H](CC(N)=O)C(=O)NCC(=O)N[C@@H](C)C(=O)N[C@@H](CO)C(=O)N[C@@H](CCCNC(=N)N)C(=O)N[C@@H](CO)C(=O)O)[C@@H](C)O)C(C)C [SYRAPRO-2000]
mode of cell death (phase contrast microscopy) (Jurkat cells): oncolysis | cytotoxicity at 8 days, 2 µM [1]: ~50% | mode of cell death (FITC-annexin V and propidium iodide staining) (HTB-3 cells): apoptosis and oncolysis | cytotoxicity at 4 days, 2 µM [2]: ~50% | mode of cell death (FITC-annexin V and propidium iodide staining) (SK—N—SH cells): apoptosis and oncolysis

— patent publication US20060252683A1, “Preparation of a peptide compound (SYRAPRO-2000) and its use for the activation of protein phosphatase-2A1 enzyme” (priority 2005, published 2006)
